# Results published in patent US8338517B2, “Aqueous compositions of fluorinated surfactants and methods of using the same” (3M Innovative Properties Company, priority 2007, dated 2012).
# Experiment: Static surface tension of aqueous surfactant solutions (Kruss K-12 tensiometer, Du Nouy ring method)
# Format: physicochemical
# Details: 1000 ppm in water, 20° C.
# Method: The solution from was diluted with water to a concentration of 1000 ppm.
# The procedure of Preparation 1 was followed except using 16.3 grams of C3F7OCHFCF2COOCH3 instead of the CF3O(CF2)3OCHFCF2COOCH3 to prepare a solution of C3F7OCHFCF2COOK. This solution was diluted with water to a concentration of 1000 ppm.
# Static surface tensions were measured on the solutions of Preparations 1 to 6 using a Kruss K-12 tensiometer (obtained from Kruss GmbH, Hamburg, Germany) using the Du Nouy ring method at 20° C.
smiles,measurement,value
O=C([O-])C(F)(F)C(F)(F)C(F)(F)C(F)(F)C(F)(F)F.[K+] [potassium perfluorohexanoate],Surface Tension,58.5 mN/m
